Measurements: PubChem BioAssay (NCI)
Values joined by “and” are separate entries in the source; they are usually repeats but may differ in a detail not shown here. Equal values may be shown once.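 Tested at 5 concentrations; 48 h exposure; 96-well plates; endpoints linearly interpolated, else capped at highest concentration. GI50 = concentration required for 50% inhibition of growth. TGI is the concentration that stops growth completely.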

Key:
Assay in all cases: NCI anticancer screen, dose series, 48 h
786-0 renal = tested on: 786-0 renal
ACHN renal = tested on: ACHN renal
HCC-2998 colon = tested on: HCC-2998 colon
HT29 colon = tested on: HT29 colon
MCF7 breast = tested on: MCF7 breast
NCI-H226 lung = tested on: NCI-H226 lung
NCI-H460 lung = tested on: NCI-H460 lung
RPMI-8226 leukemia = tested on: RPMI-8226 leukemia
SW-620 colon = tested on: SW-620 colon
U251 CNS = tested on: U251 CNS

| Compound | GI50 (786-0 renal) [µM] | TGI (786-0 renal) [µM] | GI50 (ACHN renal) [µM] | TGI (ACHN renal) [µM] | GI50 (HCC-2998 colon) [µM] | TGI (HCC-2998 colon) | GI50 (HT29 colon) [µM] | TGI (HT29 colon) [µM] | GI50 (MCF7 breast) [µM] | TGI (MCF7 breast) [µM] | GI50 (NCI-H226 lung) [µM] | TGI (NCI-H226 lung) [µM] | GI50 (NCI-H460 lung) [µM] | TGI (NCI-H460 lung) | GI50 (RPMI-8226 leukemia) [µM] | TGI (RPMI-8226 leukemia) [µM] | GI50 (SW-620 colon) [µM] | TGI (SW-620 colon) | GI50 (U251 CNS) [µM] | TGI (U251 CNS) [µM] |
| --- | --- | --- | --- | --- | --- | --- | --- | --- | --- | --- | --- | --- | --- | --- | --- | --- | --- | --- | --- | --- |
| Cc1ccc(-c2csc(NC(=O)N3CCN(c4cc5c(cc4F)c(=O)c(C(=O)O)cn5C4CC4)CC3)n2)cc1 | 0.471 | 37.5 | 0.307 | 4.22 | 0.699 | > 100 µM | 0.307 | > 100 | 0.49 | > 100 | 1.44 | 8.85 | 0.355 | > 100 µM | 0.378 | 1.9 | 1.9 | > 100 µM | 0.392 | 14.8 |
| COc1cc(OC)c(C(=O)/C=C/c2cccc(C#N)c2)c(OC)c1 | 1.31 | 5.52 | 1.13 | 4.47 | 2.17 | 7.34 µM | 1.69 | 5.87 | 1.33 | 6.72 | 1.28 | 4.56 | 1.1 | 2.86 µM | 0.981 | 4.31 | 1.46 | 5.15 µM | 1.53 | 5.76 |
| COc1cc(/C=C/C(=O)c2ccc(F)cc2)ccc1OCCCN1CCN(CC(=O)Nc2ccc(Cl)cc2C(=O)c2ccccc2Cl)CC1 | 3.86 | 15.2 | 12.5 | 32.3 | 16.6 | 40.1 µM | 2.05 | 10.4 | 2.69 | 12.1 | 18.4 | 37.2 | 4.47 | > 100 µM | 2 | 5.46 | 2.73 | 10.7 µM | 5.01 | 17.3 |
| O=[N+]([O-])c1cc(Cl)cnc1Br | – | 20.2 | – | 4.66 | – | 3.05 µM | – | 8.51 | – | 2.84 | – | 6.62 | – | 15.2 µM | – | 6.79 | – | 12.7 µM | – | 5.32 |
| COC(=O)C1=C(C)NC(C)=C(C(=O)OCC(C)C)C1c1ccccc1[N+](=O)[O-] (centres undefined) | 3.55 | 12.6 | 2.22 | 10.6 | 6.18 | 22.4 µM | 9.2 | 22.9 | 3.58 | 16.1 | 3.75 | 15.1 | 3.6 | 15.2 µM | 3.25 | 25.8 | 3.11 | 11.4 µM | 4.27 | 17.6 |
| COc1cccc(-c2cc3c4c(nc5ccccc53)C(=O)c3cccnc3-c4n2)c1 | 2.03 | 4.48 | 2.21 | 9.82 | 2.2 | 4.61 µM | 2.49 | 6.19 | 0.418 | > 100 | 6.27 | 22.3 | 1.07 | – | 1.2 | 4.22 | 1.32 | 3.88 µM | 1.66 | 7.13 |
| Cc1cn2c(/C=C3/C(=O)Nc4ccc(O)cc43)c(C)nc2s1 | 4.95 | > 100 | 5.72 | 62.8 | 1.76 | 5.01 µM | 2.47 | > 100 | 1.6 | > 33.6 | 4.91 | 39.8 | 2.56 | 14.5 µM | 1.93 | > 20.6 | 2.88 | > 100 µM | 3.06 | 35.7 |
| O=c1c(O)c(-c2ccc(O)c(O)c2)oc2cc(O)cc(O)c12 | 21.9 | > 100 | 15.6 | > 100 | 16 | 51 µM and > 100 µM | 37.3 | > 100 | 7.95 | > 100 | 16.3 | 68.5 | 6.73 | 66.9 µM and > 100 µM | 10.2 | 86.9 | 26.7 | > 100 µM and 59.8 µM | 8.68 | > 100 |
| COc1ccccc1CNCCCN1C(=O)c2ccc3c4c(ccc(c24)C1=O)C(=O)N(CCCN)C3=O | 1.47 | 4.89 | 1.58 | 4.51 | 1.8 | 3.58 µM | 1.42 | 3.75 | 0.329 | 1.6 | 1.85 | 3.92 | 0.553 | 2.16 µM | 1.36 | 4.52 | 0.589 | 2.33 µM | 1.77 | 3.99 |
| CC1=C(CCC(C)NCc2ccc(OCCCN3CCCCC3)cc2)C(C)(C)CCC1 (centres undefined) | 1.6 | 3.1 | 1.69 | 3.17 | 0.232 | 0.612 µM | 0.384 | 1.38 | 0.286 | 1.17 | 3.82 | 16.5 | 1.53 | 3.28 µM | 2.29 | 5.36 | 1.6 | 3.32 µM | 1.57 | 3.28 |
